Experimental data published in patent US20240317736A1, “DEUTERATED DERIVATIVE AS ATX INHIBITOR, AND APPLICATION THEREOF” (Xizang Haisco Pharmaceutical Co., Ltd., priority 2020, published 2024).
Values after ≈ are worked out from the molar mass of the structure shown. Where two headings read alike, the source gives them in different places.

Experiments:
[1] = Dynamic solubility test in water and biological vehicles; format: physicochemical; details: 37° C.; for solubility at 1 h / solubility at 2 h / solubility at 4 h / solubility at 24 h: read-out: S: Solubility; for pH: filtrate; for S: Solubility: LOQ: 0.03 μg/mL
Procedure: The dynamic solubility of the crystal form I of compound A (example 11) in water and three biological vehicles was evaluated. […] The samples at each time point were centrifuged (12000 rpm, 5 min) and filtered (0.45 μm PTFE filter), and the HPLC concentration and pH value of the filtrates were measured.
Preparation of simulated gastric fluid (SGF): 0.1 g of NaCl and 0.05 g of Triton X-100 were weighted to a 50 mL volumetric flask, and purified water was added to obtain a clear solution. 67.5 μL of concentrated hydrochloric acid (12 M) was added, and the pH was adjusted to 1.8 with 1 M hydrochloric acid or a 1 M NaOH solution. Purified water was added to a constant volume.
Preparation of simulated intestinal fluid (FaSSIF) in a fasted state: 0.17 g of anhydrous NaH2PO4, 0.021 g of NaOH and 0.31 g of NaCl were weighed to a 50 mL volumetric flask. About 48 mL of purified water was added to obtain a clear solution, and the pH was adjusted to 6.5 with 1 M hydrochloric acid or a 1 M NaOH solution. Purified water was added to a constant volume, and 0.11 g of SIF powder was weighed to obtain a clear solution.
Preparation of simulated intestinal fluid (FeSSIF) in a feeding state: 0.41 mL of glacial acetic acid, 0.20 g of NaOH and 0.59 g of NaCl were weighed to a 50 mL volumetric flask. About 48 mL of purified water was added to obtain a clear solution, and the pH was adjusted to 5.0 with 1 M hydrochloric acid or a 1 M NaOH solution. Purified water was added to a constant volume, and 0.56 g of SIF powder was weighed to obtain a clear solution.

[2] = Stability test of crystal form (purity and crystal form change on storage); format: physicochemical; details: for Crystal form change / Purity: 12 days
Procedure: The crystal form I (example 11) was placed at 25° C./60% RH and 40° C./75% RH for 12 days; and then the sample purity was detected, and the crystal form change was observed.

[3] = Dynamic vapor sorption (DVS); format: physicochemical; details: 25° C./80% RH
Procedure: A dynamic vapor sorption (DVS) curve is obtained on DVS Intrinsic of Surface Measurement Systems (SMS). The relative humidity at 25° C. is corrected by using the deliquescence points of LiCl, Mg(NO3)2 and KCl.
A free base (9.1 g, 15.3 mmol) of 2-((2-ethyl-6-fluoro-5-(4-(2-(3-hydroxyazetidin-1-yl)-2-oxoethyl)piperazin-1-yl)pyrazolo[1,5-a]pyridin-3-yl)(methyl-d3)amino)-4-(4-fluorophenyl)thiazole-5-carbonitrile (compound A, i.e., compound 3) prepared in example 3 was added to ethanol (50 mL), warmed to 75° C., stirred for 2 h and then dissolved. The mixture was gradually cooled to room temperature under slow stirring, with a large amount of white solids precipitated out, and filtered by suction. The filter cake was washed with ethanol (10 mL), and then dried under vacuum at 40° C. for 24 h to obtain a crystal form I of compound A as a white solid (6.2 g, yield: 68%). […] (initial temperature).

[4] = phase II clinical trial; cited from earlier work

Work on `[2H]C([2H])([2H])N(c1nc(-c2ccc(F)cc2)c(C#N)s1)c1c(CC)nn2cc(F)c(N3CCN(CC(=O)N4CC(O)C4)CC3)cc12` [Compound A Crystal form I, 2-((2-ethyl-6-fluoro-5-(4-(2-(3-hydroxyazetidin-1-yl)-2-oxoethyl)piperazin-1-yl)pyrazolo[1,5-a]pyridin-3-yl)(methyl-d3)amino)-4-(4-fluorophenyl)thiazole-5-carbonitrile] yielded a solubility at 1 h ([1]; fasted-state simulated intestinal fluid (FaSSIF), pH 6.5, thermodynamic from solid, vehicle FaSSIF, 1 h) of 320 µg/mL (≈ 537 µM), a solubility at 2 h ([1]; fasted-state simulated intestinal fluid (FaSSIF), pH 6.5, thermodynamic from solid, vehicle FaSSIF, 2 h) of 270 µg/mL (≈ 453 µM) and a solubility at 4 h ([1]; fasted-state simulated intestinal fluid (FaSSIF), pH 6.5, thermodynamic from solid, vehicle FaSSIF, 4 h) of 360 µg/mL (≈ 604 µM). The solubility at 24 h ([1]; fasted-state simulated intestinal fluid (FaSSIF), pH 6.5, thermodynamic from solid, vehicle FaSSIF, 24 h) was 210 µg/mL (≈ 353 µM), the pH ([1]; vehicle FaSSIF, 1 h) was 4.9 and the pH ([1]; vehicle FaSSIF, 2 h) was 5.0. For the same molecule, the pH ([1]; vehicle FaSSIF, 4 h) was 4.9, the pH ([1]; vehicle FaSSIF, 24 h) was 4.9 and the pH ([1]; vehicle FeSSIF, 1 h) was 8.5. The pH ([1]; vehicle FeSSIF, 2 h) was 8.5, the pH ([1]; vehicle FeSSIF, 4 h) was 8.5 and the pH ([1]; vehicle FeSSIF, 24 h) was 8.5. It also gave a pH ([1]; vehicle H2O, 1 h) of 2.0, a pH ([1]; vehicle H2O, 2 h) of 2.2 and a pH ([1]; vehicle H2O, 4 h) of 2.0. It also gave a pH ([1]; vehicle H2O, 24 h) of 2.1, a pH ([1]; vehicle SGF, 1 h) of 6.4 and a pH ([1]; vehicle SGF, 2 h) of 6.5. It also gave a pH ([1]; vehicle SGF, 4 h) of 6.4, a pH ([1]; vehicle SGF, 24 h) of 6.4 and a solubility at 1 h ([1]; simulated gastric fluid (SGF), pH 1.8, simulated gastric fluid, thermodynamic from solid, vehicle SGF, 1 h) of 15 µg/mL (≈ 25.2 µM). For the same molecule, the solubility at 2 h ([1]; simulated gastric fluid (SGF), pH 1.8, simulated gastric fluid, thermodynamic from solid, vehicle SGF, 2 h) was 15 µg/mL (≈ 25.2 µM), the solubility at 4 h ([1]; simulated gastric fluid (SGF), pH 1.8, simulated gastric fluid, thermodynamic from solid, vehicle SGF, 4 h) was 14 µg/mL (≈ 23.5 µM) and the solubility at 24 h ([1]; simulated gastric fluid (SGF), pH 1.8, simulated gastric fluid, thermodynamic from solid, vehicle SGF, 24 h) was 14 µg/mL (≈ 23.5 µM). The “S: Solubility” value ([1]; vehicle FeSSIF, 1 h) was “<LOQ”, the “S: Solubility” value ([1]; vehicle FeSSIF, 2 h) was “<LOQ” and the “S: Solubility” value ([1]; vehicle FeSSIF, 4 h) was “<LOQ”. For the same molecule, the “S: Solubility” value ([1]; vehicle FeSSIF, 24 h) was “<LOQ”, the solubility at 1 h ([1]; water, thermodynamic from solid, vehicle H2O, 1 h) was over 5100 µg/mL and the solubility at 2 h ([1]; water, thermodynamic from solid, vehicle H2O, 2 h) was over 5200 µg/mL. The solubility at 4 h ([1]; water, thermodynamic from solid, vehicle H2O, 4 h) was over 5300 µg/mL, the solubility at 24 h ([1]; water, thermodynamic from solid, vehicle H2O, 24 h) was over 5300 µg/mL and the Crystal form change ([2]; 25° C./60% RH) was “No”. For the same molecule, the Purity ([2]; 25° C./60% RH) was 99.41 area %, the Crystal form change ([2]; 40° C./75% RH) was “No” and the Purity ([2]; 40° C./75% RH) was 99.44 area %. For the same molecule, the Initial purity ([2]; before storage) was 99.76 area % and the water adsorption [3] was 0.20%.

In the case of `CCc1nc2c(C)cc(N3CCN(CC(=O)N4CC(O)C4)CC3)cn2c1N(C)c1nc(-c2ccc(F)cc2)c(C#N)s1` [GLPG-1690], the “Curative effect in IPF” value [4] is listed as “good curative effect”.
